From patent US9458176B2, “Tetrahydroimidazo(1,5-D)[1,4]oxazepine derivative” (Eisai R&D Management Co., Ltd., priority 2013, dated 2016)

Biological target: human mGluR2 (Homo sapiens (Human), UniProt Q14416)
Assay: [35S]GTPγS binding assay (Affinity to mGluR2)
Format: biochemical
Conditions: cell membrane fraction of HEK293 cells stably expressing human mGluR2, glutamic acid 10 μM
Procedure: (Preparation of Cell Membrane Fraction of HEK293 Cells Stably Expressing Human Metabotropic Glutamate Receptor 2 (mGluR2))
HEK293 cells stably expressing human mGluR2 and human glutamate transporter SLC1A3 were cultured in a Dulbecco's modified Eagle's medium with 10% fetal bovine serum (50 units/mL of penicillin, 50 μg/mL of streptomycin, 60 μg/mL of geneticin, 400 μg/mL of hygromycin B and 2 mM of glutamine) at 37° C. under 5% CO2. Confluent cell cultures were washed twice with PBS(−), and then scraped off with a cell scraper, and subjected to centrifugal separation at 4° C. and 1500 rpm for 5 minutes for collecting cells. The centrifuged sediment (cell pellet) was homogenized in a 20 mM HEPES buffer containing 10 mM EDTA (pH 7.4) by using sonicator and centrifuged at 4° C. and 1500×g for 30 minutes. The supernatant (soluble fraction) was subjected to the centrifugal separation at 4° C. and 40,000×g for 30 minutes, and thus, insoluble fraction was obtained. After additional centrifugally washing the obtained fraction with 20 mM HEPES buffer containing 10 mM EDTA (pH 7.4), the pellet was centrifugally suspended with a 20 mM HEPES buffer containing 0.1 mM EDTA, and the cell membrane fraction was obtained by the centrifugal separation at 4° C. and 40,000×g for 30 minutes. The thus obtained cell membrane fraction was suspended in a 20 mM HEPES buffer containing 0.1 mM EDTA in a protein concentration of 3 mg/mL, which was stored at −80° C.
([^35S]GTPγS Binding Assay)
The frozen cell membrane fraction prepared as described above was thawed before use, and the resultant was diluted with a buffer for a binding assay (final concentrations: 20 mM HEPES, 100 mM NaCl, 1 mM MgCl2, 3 μM GDP, 300 μg/mL saponin, 0.1% BSA). The compound of each example was added to a cell membrane fraction containing 1.8 to 3 μg/assay of membrane protein on a plate, followed by incubation at room temperature for 30 minutes. Thereafter, with glutamic acid (in a final concentration of 10 μM) added thereto, incubation was performed at room temperature for 15 minutes, and thereafter, [^35S]GTPγS (in a final concentration of 0.8 kBq) and 588 μg WGA-SPA beads were added thereto, followed by incubation at room temperature for 1 hour. After the incubation, the plate was subjected to the centrifugal separation at 2,500 rpm and room temperature, and then, membrane cell binding radioactivity was measured with a top count.
A [^35S]GTPγS binding amount obtained by performing the above-described reaction in the absence of glutamic acid was defined as nonspecific binding, and a difference from a [^35S]GTPγS binding amount obtained in the presence of glutamic acid was defined as specific binding. On the basis of ratios of inhibiting the specific binding at various concentrations of the compounds of the respective examples, inhibition curves were obtained. Concentrations of the compounds of the respective examples at which the specific [^35S]GTPγS binding amount was suppressed by 50% (IC50 values) were calculated on the basis of the inhibition curves and shown in Tables 8 and 9.

[1] = inhibition of specific [35S]GTPγS binding

Sequence of human mGluR2 (Q14416 19-872): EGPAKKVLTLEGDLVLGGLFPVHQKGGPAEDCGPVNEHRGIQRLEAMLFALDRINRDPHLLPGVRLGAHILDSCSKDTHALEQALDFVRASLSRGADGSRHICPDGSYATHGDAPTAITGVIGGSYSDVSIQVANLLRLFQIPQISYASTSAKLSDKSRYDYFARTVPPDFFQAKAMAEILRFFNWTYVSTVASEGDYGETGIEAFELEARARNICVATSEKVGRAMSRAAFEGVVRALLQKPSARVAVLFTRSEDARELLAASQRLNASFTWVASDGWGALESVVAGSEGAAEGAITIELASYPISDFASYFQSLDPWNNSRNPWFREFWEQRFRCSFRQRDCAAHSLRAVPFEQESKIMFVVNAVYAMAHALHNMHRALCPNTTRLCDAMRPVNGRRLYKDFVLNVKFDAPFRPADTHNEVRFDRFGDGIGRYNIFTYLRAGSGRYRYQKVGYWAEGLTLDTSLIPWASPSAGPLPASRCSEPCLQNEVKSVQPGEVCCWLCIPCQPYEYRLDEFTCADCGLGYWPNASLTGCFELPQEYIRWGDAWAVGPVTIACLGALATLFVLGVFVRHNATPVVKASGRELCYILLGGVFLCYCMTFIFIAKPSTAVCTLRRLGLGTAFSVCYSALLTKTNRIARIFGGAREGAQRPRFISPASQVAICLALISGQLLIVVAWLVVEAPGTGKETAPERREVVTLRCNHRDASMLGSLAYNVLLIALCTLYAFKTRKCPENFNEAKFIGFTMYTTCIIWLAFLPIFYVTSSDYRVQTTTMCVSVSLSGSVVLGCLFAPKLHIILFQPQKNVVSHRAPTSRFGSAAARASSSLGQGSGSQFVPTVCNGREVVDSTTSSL

IC50 | IC50 [1] | Compound
47.5 nM | – | Cc1cc(-c2nc(-c3ccc(C(F)(F)F)c(F)c3)n3c2CCO[C@H](C)C3)ccn1 [Example 139]
– | 19.8 nM | Cc1cc(-c2nc(-c3ccc(OC(F)(F)F)c(CO)c3)n3c2CCO[C@H](C)C3)ccn1 [Example 230]
– | 5.2 nM | Cc1cc(-c2nc(-c3ccc(OC(F)F)c(C)c3)n3c2CCO[C@H](C)C3)cc(CF)n1 [Example 199]
– | 13.7 nM | Cc1cc(-c2nc(-c3ccc(F)c(OC(F)F)c3)n3c2CCO[C@H](C)C3)cc(C)n1 [Example 184]
8.4 nM | – | Cc1cc(-c2nc(-c3ccc(Cl)c(C(F)F)c3)n3c2CCOCC3)ccn1 [Example 126]
– | 19.3 nM | Cc1cc(-c2nc(-c3ccc(C(F)(F)F)c(C)c3)n3c2CCO[C@H](CF)C3)ccn1 [Example 187]
– | 2.9 nM | Cc1cc(-c2nc(-c3ccc(OC(F)F)c(CF)c3)n3c2CCO[C@H](C)C3)ccn1 [Example 236]
25.5 nM | – | Cc1cc(-c2nc(-c3ccc(Cl)c(C(F)F)c3)n3c2CCO[C@H](C)C3)cc(C)n1 [Example 131]
– | 19.2 nM | COc1ccc(-c2nc(-c3ccnc(C)c3)c3n2C[C@@H](C)OCC3)cc1OC(F)(F)F [Example 155]
25.3 nM | – | Cc1cc(-c2nc(-c3ccc(F)c(OCC4CCC4)c3)n3c2CCO[C@H](C)C3)ccn1 [Example 100]
– | 19.3 nM | Cc1cc(-c2nc(-c3ccc(OC(F)F)c(F)c3)n3c2CCO[C@H](C)C3)ccn1 [Example 182]
– | 9 nM | COc1cc(-c2nc(-c3cc(C)nc(C(F)F)c3)c3n2C[C@@H](CF)OCC3)ccc1OC(F)F [Example 193]
2.5 nM | – | Cc1cc(-c2nc(-c3ccc(OC(F)(F)F)c(CF)c3)n3c2CCO[C@H](C)C3)ccn1 [Example 39, (R)-3-(3-(fluoromethyl)-4-(trifluoromethoxy)phenyl)-6-methyl-1-(2-methylpyridin-4-yl)-5,6,8,9-tetrahydroimidazo[1,5-d][1,4]oxazepine]
28.3 nM | – | COc1cc(-c2nc(-c3ccnc(CF)c3)c3n2C[C@@H](C)OCC3)ccc1Cl [Example 12, (R)-3-(4-chloro-3-methoxyphenyl)-1-(2-(fluoromethyl)pyridin-4-yl)-6-methyl-5,6,8,9-tetrahydroimidazo[1,5-d][1,4]oxazepine]
– | 26.7 nM | CCc1ccc(-c2nc(-c3ccnc(C)c3)c3n2C[C@@H](C)OCC3)cc1OCC1CC1 [Example 221]
19.4 nM | – | Cc1cc(-c2nc(-c3ccc(Cl)c(C)c3)n3c2CCO[C@H](C)C3)ccn1 [Example 54]
– | 3.8 nM | Cc1cc(-c2nc(-c3ccc(OC(F)(F)F)c(C#N)c3)n3c2CCO[C@H](CF)C3)ccn1 [Example 196]
– | 2.9 nM | CCOc1ccc(-c2nc(-c3cc(C)nc(C)c3)c3n2C[C@@H](C)OCC3)cc1C [Example 241]
13.2 nM | – | COc1cc(-c2nc(-c3ccnc(C)c3)c3n2C[C@@H](C)OCC3)ccc1C(F)(F)F [Example 8, (R)-3-(3-methoxy-4-(trifluoromethyl)phenyl)-6-methyl-1-(2-methylpyridin-4-yl)-5,6,8,9-tetrahydroimidazo[1,5-d][1,4]oxazepine]
– | 5.1 nM | COc1cc(-c2nc(-c3cc(C)nc(CF)c3)c3n2C[C@@H](CF)OCC3)ccc1OC(F)F [Example 209]
– | 16.7 nM | CCOc1cc(-c2nc(-c3ccnc(C)c3)c3n2C[C@@H](C)OCC3)ccc1C [Example 223]

The remaining lines, values behind:

Compound | IC50 | IC50 [1]
COc1ccc(-c2nc(-c3cc(C)nc(C)c3)c3n2C[C@@H](CF)OCC3)cc1Cl [Example 36, (S)-3-(3-chloro-4-methoxyphenyl)-1-(2,6-dimethylpyridin-4-yl)-6-(fluoromethyl)-5,6,8,9-tetrahydroimidazo[1,5-d][1,4]oxazepine] | 10 nM | –
Cc1cc(-c2nc(-c3ccc(Cl)c(Cl)c3)n3c2CCO[C@H](C)C3)cc(C)n1 [Example 65] | 14 nM | –
COc1cc(-c2nc(-c3cc(C)nc(C)c3)c3n2C[C@@H](C)OCC3)ccc1C [Example 53] | 21.3 nM | –
Cc1cc(-c2nc(-c3ccc(OC(F)(F)F)c(F)c3)n3c2CCO[C@H](C)C3)cc(C)n1 [Example 147] | – | 10.5 nM
Cc1cc(-c2nc(-c3ccc(Cl)c(C)c3)n3c2CCOCC3)cc(C)n1 [Example 110] | 64.2 nM | –
Cc1cc(-c2nc(-c3ccc(F)c(OCC4CC4)c3)n3c2CCOCC3)cc(C)n1 [Example 94] | 34.9 nM | –
COc1cc(-c2nc(-c3cc(C)nc(C)c3)c3n2C[C@@H](C)OCC3)ccc1F [Example 136] | 33.9 nM | –
COc1cc(-c2nc(-c3cc(C)nc(C)c3)c3n2CCOCC3)ccc1C(F)F [Example 121] | 40.9 nM | –
Cc1cc(-c2nc(-c3ccc(OC(F)(F)F)c(F)c3)n3c2CCOCC3)cc(C)n1 [Example 106] | 20.9 nM | –
CCOc1cc(-c2nc(-c3cc(C)nc(C)c3)c3n2CCOCC3)ccc1Cl [Example 102] | 22.7 nM | –
Cc1cc(-c2nc(-c3ccc(Cl)c(C(F)F)c3)n3c2CCOCC3)cc(C)n1 [Example 125] | 16.5 nM | –
COc1cc(-c2nc(-c3cc(C)nc(C)c3)c3n2C[C@@H](C)OCC3)ccc1C(C)(F)F [Example 23, (R)-3-(4-(1,1-difluoroethyl)-3-methoxyphenyl)-1-(2,6-dimethylpyridin-4-yl)-6-methyl-5,6,8,9-tetrahydroimidazo[1,5-d][1,4]oxazepine] | 19.4 nM | –
Cc1cc(-c2nc(-c3ccc(OC4CC4)c(Cl)c3)n3c2CCO[C@H](C)C3)cc(C)n1 [Example 19, (R)-3-(3-chloro-4-cyclopropoxyphenyl)-1-(2,6-dimethylpyridin-4-yl)-6-methyl-5,6,8,9-tetrahydroimidazo[1,5-d][1,4]oxazepine] | 3 nM | –
COc1ccc(-c2nc(-c3cc(C)nc(C)c3)c3n2C[C@@H](CF)OCC3)cc1C [Example 245] | – | 5.2 nM
Cc1cc(-c2nc(-c3ccc(OC4COC4)c(Cl)c3)n3c2CCO[C@H](C)C3)cc(C)n1 [Example 232] | – | 9.7 nM
Cc1cc(-c2nc(-c3ccc(F)c(C(F)(F)F)c3)n3c2CCO[C@H](C)C3)cc(C)n1 [Example 143] | – | 13.6 nM
Cc1cc(-c2nc(-c3ccc(Cl)c(F)c3)n3c2CCO[C@H](C)C3)cc(C)n1 [Example 56] | 21.9 nM | –
COc1ccc(-c2nc(-c3cc(C)nc(C)c3)c3n2C[C@@H](C)OCC3)cc1C [Example 18, (R)-1-(2,6-dimethylpyridin-4-yl)-3-(4-methoxy-3-methylphenyl)-6-methyl-5,6,8,9-tetrahydroimidazo[1,5-d][1,4]oxazepine] | 12.3 nM | –
COc1cc(-c2nc(-c3cc(C)nc(C)c3)c3n2C[C@@H](C(F)F)OCC3)ccc1Cl [Example 79] | 30.4 nM | –
Cc1cc(-c2nc(-c3ccc(F)c(OCC(F)(F)F)c3)n3c2CCOCC3)cc(C)n1 [Example 93] | 28.7 nM | –
Cc1cc(-c2nc(-c3ccc(OCc4ccccc4)c(F)c3)n3c2CCOCC3)cc(C)n1 [Example 49] | 11.4 nM | –
Cc1cc(-c2nc(-c3ccc(C(F)F)c(Cl)c3)n3c2CCOCC3)cc(C)n1 [Example 137] | 18.7 nM | –
Cc1cc(-c2nc(-c3ccc(C)c(C(F)(F)F)c3)n3c2CCO[C@H](C)C3)cc(C)n1 [Example 183] | – | 7.4 nM
CCOc1cc(-c2nc(-c3ccnc(C)c3)c3n2CCOCC3)ccc1CC [Example 214] | – | 21 nM
Cc1cc(-c2nc(-c3ccc(Cl)c(F)c3)n3c2CCOCC3)cc(C)n1 [Example 105] | 92.1 nM | –
COc1ccc(-c2nc(-c3cc(C)nc(C)c3)c3n2C[C@@H](C)OCC3)cc1OC(F)(F)F [Example 154] | – | 6.7 nM
